Reference: BindingDB's records for patent US20250127913 (Lycia Therapeutics, 2025)

Columns and labels:
[1] = molecular target: Tumor necrosis factor (Homo sapiens, UniProt P01375); assay: TNFα Binding Assay
Description: Table 15: TNFα binding was measured in black 96-well plates using a time-resolved FRET assay using a previously described fluorescence acceptor TNFα probe (Xiao et al J. Med. Chem. 2020). Biotinylated TNFα was purchased from Acro Biosystems. Binding reactions were conducted in 20 mM Hepes (pH 7.5) 10 mM MgCl2 0.015% Tween-20 0.05 mg/ml BSA 2% DMSO with 1 nM TNFα 0.5 nM Streptavidin-Tb and 80 nM probe. Test compounds were resuspended in DMSO and 3-fold serial dilutions were made at 100× final concentrations. Fluorescence was measured using λex=340 nm, λem=490, 520 nm on an SpectraMax M5e plate reader (Molecular Devices) after 16 hr incubation time. Dose responses were conducted in duplicate and normalized to the response with DMSO (high) and 100 nM (R)-3-(1-((3-chloro-7-fluoro-6-(2-(2-hydroxypropan-2-yl)pyrimidin-5-yl)-2-methyl-1,5-naphthyridin-4-yl)amino)ethyl)-4-fluorobenzonitrile (low) on each plate. IC50 values were determined by fitting to 4-parameter curves in GraphPad Prism.

[2] = molecular target: T1, Folate receptor beta (Homo sapiens, UniProt P14207); assay: Folate Receptor Binding Assay
T1 sequence (P14207 whole entry): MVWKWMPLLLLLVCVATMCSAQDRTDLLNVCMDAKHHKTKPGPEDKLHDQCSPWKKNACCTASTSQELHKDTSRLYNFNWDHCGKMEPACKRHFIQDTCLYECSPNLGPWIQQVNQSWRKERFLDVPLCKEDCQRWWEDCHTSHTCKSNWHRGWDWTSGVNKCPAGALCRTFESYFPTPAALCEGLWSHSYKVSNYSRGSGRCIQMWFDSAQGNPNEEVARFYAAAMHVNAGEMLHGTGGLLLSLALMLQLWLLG
Description: Table 15: Folate receptor binding was measured in black 96-well plates using a fluorescence polarization assay. A fluorescent probe consisting of a folate analog linked to Cy5 (FR-Cy) was custom synthesized. Test compounds were resuspended in DMSO and 3-fold serial dilutions were made from 300-0.015 μM (100× final concentrations). Binding reactions were conducted in 200 μl final volume in 20 mM Hepes (pH 7.5) 250 mM NaCl 0.0150 Tween-20 1% DMSO with 2.5 nM folate receptor beta (Acro Biosystems) and 2 nM probe. Fluorescence polarization was measured using λex=620 nm, λem=688 nm on an Envision plate reader (Perkin Elmer) after 2 hr incubation time. Dose responses were conducted in duplicate and normalized to the response with DMSO (high) and 1 μM folic acid (low) on each plate. IC50 values were determined by fitting to 4-parameter curves in GraphPad Prism.

[3] = molecular target: T1, Folate receptor beta; assay: Folate Receptor SPR Assay
Description: Table 16: Folate receptor SPR binding assays were conducted on a Biacore 8K instrument (Cytiva) using biotinylated folate receptor beta (Acro Biosystems). Briefly, folate receptor was immobilized at -550 RU on a streptavidin chip (Cytiva) in 10 mM HEPES pH 7.5, 150 mM NaCl, 0.05% Tween 20. Multi-cycle kinetic studies were conducted with 8 compound concentrations using 2-fold dilutions in 10 mM HEPES pH 7.5, 150 mM NaCl, 0.05 % Tween 20, 2% DMSO at 25° C. A flow rate or 75 μl/mmn with an association time of 120 s and a dissociation time of 600 s were used. Surfaces were regenerated with 4 M MgCl2 at 30 μl/min for 30 s. Data were fit to a 1:1 model to determine the reported binding parameters.

Chain of Tumor necrosis factor (P01375 whole entry): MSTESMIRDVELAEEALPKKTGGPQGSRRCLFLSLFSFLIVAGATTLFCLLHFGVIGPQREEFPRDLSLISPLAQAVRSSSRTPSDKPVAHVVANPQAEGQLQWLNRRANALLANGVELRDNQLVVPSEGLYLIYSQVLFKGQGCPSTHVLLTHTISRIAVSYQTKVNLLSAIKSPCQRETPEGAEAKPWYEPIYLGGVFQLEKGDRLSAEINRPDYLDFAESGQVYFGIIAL

**Q.** With `Cc1nc2cc(F)c(-c3cnc(N4CCN(C(=O)COCCn5cc(COCCOCCOCCOCCNC(=O)CC[C@H](NC(=O)[C@H]6CC[C@H](NCc7cnc8nc(N)nc(O)c8n7)CC6)C(=O)O)nn5)CC4)nc3)nc2c(N[C@H](C)c2ccccc2F)c1Cl` [US20250127913, Compound I-91] as the compound, how does the IC50 [1] read?
**A.** Its IC50 is 17.5 nM.

**Q.** What about the IC50 [2] of the same compound?
**A.** Its IC50 is 138 nM.

**Q.** What about the Kd [3] of the same compound?
**A.** Its Kd is 0.201 nM.
